Experimental data taken from patent US9452986B2, “6-heteroaryloxy- or 6-aryloxy-quinoline-2-carboxamides and method of use” (AbbVie Inc., priority 2014, dated 2016).

These molecules were tested against recombinant human Nav1.7 (Homo sapiens (Human), UniProt Q15858) (assay: FRET-based membrane potential assay, recombinant human sodium channel Nav1.7). Details: HEK293 cells stably expressing recombinant human Nav1.7; veratridine + scorpion venom depolarization; read-out: FRET-Membrane Potential Nav1.7 IC50.
Assay type: cell-based
Outline: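 Channel activation used veratridine at its EC80, set by a dilution curve each experiment, together with Leiurus scorpion venom, added 3 min after compound. Membrane-potential ratio signals from FLIPR Tetra in HEPES-buffered HBSS were fitted to a four-parameter Hill equation for percent inhibition and IC50.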

recombinant human Nav1.7, sequence (Q15858 whole entry): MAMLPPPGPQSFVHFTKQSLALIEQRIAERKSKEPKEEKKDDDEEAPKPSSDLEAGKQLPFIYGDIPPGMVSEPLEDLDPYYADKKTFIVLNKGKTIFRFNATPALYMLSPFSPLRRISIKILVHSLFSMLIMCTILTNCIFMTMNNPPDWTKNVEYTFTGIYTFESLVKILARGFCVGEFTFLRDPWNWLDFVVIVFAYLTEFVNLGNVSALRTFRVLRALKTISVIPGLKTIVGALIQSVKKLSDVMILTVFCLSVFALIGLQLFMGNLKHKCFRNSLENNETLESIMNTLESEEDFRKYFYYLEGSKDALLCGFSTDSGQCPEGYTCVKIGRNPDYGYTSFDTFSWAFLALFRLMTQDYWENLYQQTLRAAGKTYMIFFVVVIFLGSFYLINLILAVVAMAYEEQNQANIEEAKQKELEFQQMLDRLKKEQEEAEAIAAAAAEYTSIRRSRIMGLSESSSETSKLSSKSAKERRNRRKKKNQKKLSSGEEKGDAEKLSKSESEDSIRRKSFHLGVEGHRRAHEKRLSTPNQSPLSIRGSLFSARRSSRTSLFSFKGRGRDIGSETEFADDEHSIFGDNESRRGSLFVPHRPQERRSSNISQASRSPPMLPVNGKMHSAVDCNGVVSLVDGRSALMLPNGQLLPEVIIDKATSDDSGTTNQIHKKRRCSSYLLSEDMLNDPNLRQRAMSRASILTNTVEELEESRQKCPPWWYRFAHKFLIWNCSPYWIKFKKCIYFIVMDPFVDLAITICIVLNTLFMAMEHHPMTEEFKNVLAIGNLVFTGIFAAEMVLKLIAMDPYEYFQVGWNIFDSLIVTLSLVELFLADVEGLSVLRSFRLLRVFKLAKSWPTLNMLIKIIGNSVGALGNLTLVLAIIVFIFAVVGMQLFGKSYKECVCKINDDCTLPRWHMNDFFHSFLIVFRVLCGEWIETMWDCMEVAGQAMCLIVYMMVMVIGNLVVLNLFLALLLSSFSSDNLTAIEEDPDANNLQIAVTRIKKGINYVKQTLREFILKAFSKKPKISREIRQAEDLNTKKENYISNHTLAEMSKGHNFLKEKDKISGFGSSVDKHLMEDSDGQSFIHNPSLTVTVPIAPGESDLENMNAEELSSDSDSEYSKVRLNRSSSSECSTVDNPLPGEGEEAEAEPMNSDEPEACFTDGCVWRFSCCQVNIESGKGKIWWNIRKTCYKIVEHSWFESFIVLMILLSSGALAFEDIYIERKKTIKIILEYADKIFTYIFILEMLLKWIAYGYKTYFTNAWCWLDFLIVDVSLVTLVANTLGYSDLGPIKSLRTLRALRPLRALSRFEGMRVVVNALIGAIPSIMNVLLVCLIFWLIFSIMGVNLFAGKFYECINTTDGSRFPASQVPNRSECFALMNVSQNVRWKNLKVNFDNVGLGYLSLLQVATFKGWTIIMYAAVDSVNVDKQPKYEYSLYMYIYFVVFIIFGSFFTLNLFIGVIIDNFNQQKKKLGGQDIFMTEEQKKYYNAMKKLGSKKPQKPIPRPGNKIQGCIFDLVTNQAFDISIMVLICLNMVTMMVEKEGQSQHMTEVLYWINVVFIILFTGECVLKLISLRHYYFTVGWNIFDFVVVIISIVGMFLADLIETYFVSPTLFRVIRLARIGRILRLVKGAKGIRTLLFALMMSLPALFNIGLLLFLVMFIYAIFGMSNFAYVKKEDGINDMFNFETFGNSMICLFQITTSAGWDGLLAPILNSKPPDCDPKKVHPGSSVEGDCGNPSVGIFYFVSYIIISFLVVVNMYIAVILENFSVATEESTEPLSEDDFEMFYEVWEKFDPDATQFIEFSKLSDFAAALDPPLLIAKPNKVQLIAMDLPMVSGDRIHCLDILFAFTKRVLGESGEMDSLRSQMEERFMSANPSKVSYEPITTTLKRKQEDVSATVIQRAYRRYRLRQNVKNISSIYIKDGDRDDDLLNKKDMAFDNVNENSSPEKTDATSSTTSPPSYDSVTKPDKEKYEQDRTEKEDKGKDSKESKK

Question: Which IC50 does the source give for `O=C1CC(NC(=O)c2ccc3cc(Oc4ccc(C(F)(F)F)cn4)ccc3n2)C1` [Example 432, N-(3-oxocyclobutyl)-6-{[5-(trifluoromethyl)pyridin-2-yl]oxy}quinoline-2-carboxamide] here?
Answer: The IC50 was 2.87 µM.

Question: With `O=C(NC1CC(N2CCOCC2)C1)c1ccc2cc(Oc3ccc(C(F)(F)F)cn3)ccc2n1` (stereo not drawn) [Example 433, N-[3-(morpholin-4-yl)cyclobutyl]-6-{[5-(trifluoromethyl)pyridin-2-yl]oxy}quinoline-2-carboxamide] as the molecule, how does the IC50 read?
Answer: Its IC50 is 0.442 µM.

Question: How did the IC50 turn out when `CC(C)(O)CNC(=O)c1ccc2cc(Oc3ccc(C(F)F)cn3)ccc2n1` [Example 434, 6-{[5-(difluoromethyl)pyridin-2-yl]oxy}-N-(2-hydroxy-2-methylpropyl)quinoline-2-carboxamide] was run?
Answer: Its IC50 is 5.58 µM.

Question: How did the IC50 turn out when `O=C(NC1CCC(F)(F)CC1)c1ccc2cc(Oc3ccc(C(F)F)cn3)ccc2n1` [Example 437, N-(4,4-difluorocyclohexyl)-6-{[5-(difluoromethyl)pyridin-2-yl]oxy}quinoline-2-carboxamide] was run?
Answer: Its IC50 is 3.17 µM.

Question: `O=C(N[C@@H]1CCN(C(=O)c2ccc3cc(Oc4ccc(C(F)(F)F)cn4)ccc3n2)C1)C1CC1` [Example 439, N-{(3R)-1-[(6-{[5-(trifluoromethyl)pyridin-2-yl]oxy}quinolin-2-yl)carbonyl]pyrrolidin-3-yl}cyclopropanecarboxamide] was tested. Which IC50 did it give?
Answer: The IC50 was 5.86 µM.

Question: Which IC50 does the source give for `O=C(c1ccc2cc(Oc3ccc(C(F)F)cn3)ccc2n1)N1CCN[C@@H](CO)C1` [Example 440, (6-{[5-(difluoromethyl)pyridin-2-yl]oxy}quinolin-2-yl) [(3R)-3-(hydroxymethyl)piperazin-1-yl]methanone] here?
Answer: Its IC50 is 12.6 µM.

Question: How did the IC50 turn out when `COCCNC(=O)CN(C)C(=O)c1ccc2cc(Oc3ccc(C(F)(F)F)cn3)ccc2n1` [Example 442, N-{2-[(2-methoxyethyl)amino]-2-oxoethyl}-N-methyl-6-{[5-(trifluoromethyl)pyridin-2-yl]oxy}quinoline-2-carboxamide] was run?
Answer: Its IC50 is 5.52 µM.

Question: With `O=C(NCC(=O)N1CCOCC1)c1ccc2cc(Oc3ccc(C(F)(F)F)cn3)ccc2n1` [Example 443, N-[2-(morpholin-4-yl)-2-oxoethyl]-6-{[5-(trifluoromethyl)pyridin-2-yl]oxy}quinoline-2-carboxamide] as the molecule, how does the IC50 read?
Answer: The IC50 was 0.703 µM.

Question: With `O=C(NCCC(=O)N1CCOCC1)c1ccc2cc(Oc3ccc(C(F)(F)F)cn3)ccc2n1` [Example 444, N-[3-(morpholin-4-yl)-3-oxopropyl]-6-{[5-(trifluoromethyl)pyridin-2-yl]oxy}quinoline-2-carboxamide] as the molecule, how does the IC50 read?
Answer: Its IC50 is 1.4 µM.

Question: `O=C(NCCC(=O)N1CCCC1)c1ccc2cc(Oc3ccc(C(F)(F)F)cn3)ccc2n1` [Example 445, N-[3-oxo-3-(pyrrolidin-1-yl)propyl]-6-{[5-(trifluoromethyl)pyridin-2-yl]oxy}quinoline-2-carboxamide] was tested. Which IC50 did it give?
Answer: The IC50 was 0.268 µM.

Question: For `O=C(NCC(=O)N1CCCCC1)c1ccc2cc(Oc3ccc(C(F)(F)F)cn3)ccc2n1` [Example 447, N-[2-oxo-2-(piperidin-1-yl)ethyl]-6-{[5-(trifluoromethyl)pyridin-2-yl]oxy}quinoline-2-carboxamide], which IC50 is on record?
Answer: Its IC50 is 0.69 µM.

Question: `CN1CC(NC(=O)c2ccc3cc(Oc4ccc(C(F)(F)F)cn4)ccc3n2)CC1=O` (stereo not drawn) [Example 448, N-(1-methyl-5-oxopyrrolidin-3-yl)-6-{[5-(trifluoromethyl)pyridin-2-yl]oxy}quinoline-2-carboxamide] was tested. Which IC50 did it give?
Answer: The IC50 was 0.371 µM.

Question: For `CN1CCN(C(=O)c2ccc3cc(Oc4ccc(C(F)(F)F)cn4)ccc3n2)CC1=O` [Example 450, 1-methyl-4-[(6-{[5-(trifluoromethyl)pyridin-2-yl]oxy}quinolin-2-yl)carbonyl]piperazin-2-one], which IC50 is on record?
Answer: The IC50 was 3.58 µM.

Question: For `CN(C)C(=O)[C@@H]1CCCN1C(=O)c1ccc2cc(Oc3ccc(C(F)(F)F)cn3)ccc2n1` [Example 451, N,N-dimethyl-1-[(6-{[5-(trifluoromethyl)pyridin-2-yl]oxy}quinolin-2-yl)carbonyl]-L-prolinamide], which IC50 is on record?
Answer: Its IC50 is 5.23 µM.

Question: `CN(CC(=O)NC1CC1)C(=O)c1ccc2cc(Oc3ccc(C(F)(F)F)cn3)ccc2n1` [Example 452, N-[2-(cyclopropylamino)-2-oxoethyl]-N-methyl-6-{[5-(trifluoromethyl)pyridin-2-yl]oxy}quinoline-2-carboxamide] was tested. Which IC50 did it give?
Answer: The IC50 was 3.21 µM.

Question: `CCN(CC)C(=O)CCNC(=O)c1ccc2cc(Oc3ccc(C(F)(F)F)cn3)ccc2n1` [Example 453, N-[3-(diethylamino)-3-oxopropyl]-6-{[5-(trifluoromethyl)pyridin-2-yl]oxy}quinoline-2-carboxamide] was tested. Which IC50 did it give?
Answer: Its IC50 is 0.405 µM.

Question: Which IC50 does the source give for `CC(C)NC(=O)CN(C)C(=O)c1ccc2cc(Oc3ccc(C(F)(F)F)cn3)ccc2n1` [Example 454, N-[2-(isopropylamino)-2-oxoethyl]-N-methyl-6-{[5-(trifluoromethyl)pyridin-2-yl]oxy}quinoline-2-carboxamide] here?
Answer: Its IC50 is 3.14 µM.

Question: With `O=C(NCC(=O)N1CCCC1)c1ccc2cc(Oc3ccc(C(F)F)cn3)ccc2n1` [Example 456, 6-{[5-(difluoromethyl)pyridin-2-yl]oxy}-N-[2-oxo-2-(pyrrolidin-1-yl)ethyl]quinoline-2-carboxamide] as the molecule, how does the IC50 read?
Answer: Its IC50 is 0.886 µM.

Question: How did the IC50 turn out when `COCCNC(=O)CN(C)C(=O)c1ccc2cc(Oc3ccc(C(F)F)cn3)ccc2n1` [Example 457, 6-{[5-(difluoromethyl)pyridin-2-yl]oxy}-N-{2-[(2-methoxyethyl)amino]-2-oxoethyl}-N-methylquinoline-2-carboxamide] was run?
Answer: The IC50 was greater than 20 µM.

Question: How did the IC50 turn out when `O=C(NCC(=O)N1CCOCC1)c1ccc2cc(Oc3ccc(C(F)F)cn3)ccc2n1` [Example 458, 6-{[5-(difluoromethyl)pyridin-2-yl]oxy}-N-[2-(morpholin-4-yl)-2-oxoethyl]quinoline-2-carboxamide] was run?
Answer: The IC50 was 1.19 µM.

Question: Which IC50 does the source give for `O=C(NCCC(=O)N1CCOCC1)c1ccc2cc(Oc3ccc(C(F)F)cn3)ccc2n1` [Example 459, 6-{[5-(difluoromethyl)pyridin-2-yl]oxy}-N-[3-(morpholin-4-yl)-3-oxopropyl]quinoline-2-carboxamide] here?
Answer: Its IC50 is 8.69 µM.

Question: Which IC50 does the source give for `O=C(NCCC(=O)N1CCCC1)c1ccc2cc(Oc3ccc(C(F)F)cn3)ccc2n1` [Example 460, 6-{[5-(difluoromethyl)pyridin-2-yl]oxy}-N-[3-oxo-3-(pyrrolidin-1-yl)propyl]quinoline-2-carboxamide] here?
Answer: Its IC50 is 2.4 µM.

Question: For `CCN(CC)C(=O)CNC(=O)c1ccc2cc(Oc3ccc(C(F)F)cn3)ccc2n1` [Example 461, N-[2-(diethylamino)-2-oxoethyl]-6-{[5-(difluoromethyl)pyridin-2-yl]oxy}quinoline-2-carboxamide], which IC50 is on record?
Answer: Its IC50 is 0.354 µM.

Question: Which IC50 does the source give for `O=C(NCCC(=O)N1CCCCC1)c1ccc2cc(Oc3ccc(C(F)F)cn3)ccc2n1` [Example 463, 6-{[5-(difluoromethyl)pyridin-2-yl]oxy}-N-[3-oxo-3-(piperidin-1-yl)propyl]quinoline-2-carboxamide] here?
Answer: The IC50 was 1.12 µM.

Question: How did the IC50 turn out when `CN1CCN(C(=O)c2ccc3cc(Oc4ccc(C(F)F)cn4)ccc3n2)CC1=O` [Example 464, 4-[(6-{[5-(difluoromethyl)pyridin-2-yl]oxy}quinolin-2-yl)carbonyl]-1-methylpiperazin-2-one] was run?
Answer: Its IC50 is greater than 20 µM.

Question: For `CN(C)C(=O)[C@@H]1CCCN1C(=O)c1ccc2cc(Oc3ccc(C(F)F)cn3)ccc2n1` [Example 465, 1-[(6-{[5-(difluoromethyl)pyridin-2-yl]oxy}quinolin-2-yl)carbonyl]-N,N-dimethyl-L-prolinamide], which IC50 is on record?
Answer: The IC50 was greater than 20 µM.

Question: For `CN(CC(=O)NC1CC1)C(=O)c1ccc2cc(Oc3ccc(C(F)F)cn3)ccc2n1` [Example 466, N-[2-(cyclopropylamino)-2-oxoethyl]-6-{[5-(difluoromethyl)pyridin-2-yl]oxy}-N-methylquinoline-2-carboxamide], which IC50 is on record?
Answer: Its IC50 is 9.41 µM.

Question: `CCN(CC)C(=O)CCNC(=O)c1ccc2cc(Oc3ccc(C(F)F)cn3)ccc2n1` [Example 467, N-[3-(diethylamino)-3-oxopropyl]-6-{[5-(difluoromethyl)pyridin-2-yl]oxy}quinoline-2-carboxamide] was tested. Which IC50 did it give?
Answer: The IC50 was 0.521 µM.

Same assay, conditions: read-out: FRET-Membrane Potential Nav1.7 IC50

Question: How did the IC50 turn out when `O=C(c1ccc2cc(Oc3ccc(C(F)F)cn3)ccc2n1)N1CC(N2CCOCC2)C1` [Example 429, (6-{[5-(difluoromethyl)pyridin-2-yl]oxy}quinolin-2-yl) [3-(morpholin-4-yl)azetidin-1-yl]methanone] was run?
Answer: Its IC50 is 13.8 µM.

Question: `O=C(c1ccc2cc(Oc3ccc(C(F)F)cn3)ccc2n1)N1CCNCC1C(F)F` (stereo not drawn) [Example 430, [2-(difluoromethyl)piperazin-1-yl](6-{[5-(difluoromethyl)pyridin-2-yl]oxy}quinolin-2-yl)methanone] was tested. Which IC50 did it give?
Answer: Its IC50 is 3.45 µM.

Question: `O=C(c1ccc2cc(Oc3ccc(C(F)F)cn3)ccc2n1)N1CCC(N2CCOCC2)CC1` [Example 435, (6-{[5-(difluoromethyl)pyridin-2-yl]oxy}quinolin-2-yl)[4-(morpholin-4-yl)piperidin-1-yl]methanone] was tested. Which IC50 did it give?
Answer: The IC50 was 12.6 µM.

Question: Which IC50 does the source give for `CC(=O)N[C@@H]1CCN(C(=O)c2ccc3cc(Oc4ccc(C(F)(F)F)cn4)ccc3n2)C1` [Example 438, N-{(3R)-1-[(6-{[5-(trifluoromethyl)pyridin-2-yl]oxy}quinolin-2-yl)carbonyl]pyrrolidin-3-yl}acetamide] here?
Answer: Its IC50 is 12.5 µM.

Question: Which IC50 does the source give for `CCN(CC)C(=O)CNC(=O)c1ccc2cc(Oc3ccc(C(F)(F)F)cn3)ccc2n1` [Example 446, N-[2-(diethylamino)-2-oxoethyl]-6-{[5-(trifluoromethyl)pyridin-2-yl]oxy}quinoline-2-carboxamide] here?
Answer: Its IC50 is 0.166 µM.

Question: For `O=C(NCCC(=O)N1CCCCC1)c1ccc2cc(Oc3ccc(C(F)(F)F)cn3)ccc2n1` [Example 449, N-[3-oxo-3-(piperidin-1-yl)propyl]-6-{[5-(trifluoromethyl)pyridin-2-yl]oxy}quinoline-2-carboxamide], which IC50 is on record?
Answer: Its IC50 is 0.789 µM.

Question: Which IC50 does the source give for `CNC(=O)[C@@H]1CCCN1C(=O)c1ccc2cc(Oc3ccc(C(F)F)cn3)ccc2n1` [Example 455, 1-[(6-{[5-(difluoromethyl)pyridin-2-yl]oxy}quinolin-2-yl)carbonyl]-N-methyl-L-prolinamide] here?
Answer: Its IC50 is greater than 20 µM.

Question: With `CN1CC(NC(=O)c2ccc3cc(Oc4ccc(C(F)F)cn4)ccc3n2)CC1=O` (stereo not drawn) [Example 462, 6-{[5-(difluoromethyl)pyridin-2-yl]oxy}-N-(1-methyl-5-oxopyrrolidin-3-yl)quinoline-2-carboxamide] as the molecule, how does the IC50 read?
Answer: Its IC50 is 0.947 µM.
